Data on 4 compounds can be found in patent publication EP2945947B1, “INHIBITING THE TRANSIENT RECEPTOR POTENTIAL A1 ION CHANNEL” (Merck Sharp & Dohme Corp., priority 2013, dated 2014).

The subject of series [1] is Female Sprague Dawley rats. Kind of series: Rodent acute tolerability test with liver function tests (Example 5). The series is classed as in vivo, rat. Further details: key to Alterations in LFT: (↔) indicates blood levels of markers for potential liver damage within normal range; (↑) indicates blood levels of markers for potential liver damage elevated above normal range. Conditions: for Alterations in LFT / LFT: % upper normal range ALT serum levels / LFT: % upper normal range AST serum levels: about 24 hours post dose. Here is the method:
Compounds of Formula (Ia) were assessed for acute tolerability in a rodent model at dose levels ranging from 100 - 200 mg/kg based upon the minimum efficacious dose of each compound. Female Sprague Dawley rats were administered up to a 10 mL/kg dose volume of each compound in 0.9% saline at appropriate concentrations as an intravenous bolus via the lateral tail vein. The animals were observed immediately post dose and for up to twenty four hours post dose and clinical observations were recorded. Additionally, approximately twenty four hours post dose animals were euthanized and blood taken for serum chemistry analysis with a focus on liver function tests (LFTs). The maximum tolerated single dose and LFT results are summarized in Table 3, where (↔) indicates blood levels of markers for potential liver damage within normal range and (↑) indicates blood levels of markers for potential liver damage elevated above normal range. Referring to the data in Table 3, LFT blood levels of markers for potential liver damage remained within normal range for the compounds of Formula (Ia), while LFTs were elevated for Comparator Compounds including 5-10 fold elevation above normal for ALT and AST blood levels observed upon administration of Comparative Compound 1. […]

A short description of series [2]: Aqueous solubility in buffered solutions, HPLC (Example 2). The series is classed as physicochemical. Conditions: kinetic from dmso stock, ambient temperature.
A further series deals with rat. Kind of series: Rodent cold plate pain model, Complete Freund's Adjuvant (Example 4). Conditions: cold plate 1 °C, Figures 1 and 2. The series is classed as in vivo. Here is the method: CFA-induced pain test method reported in del Camino et al., J. Neurosci., 30 (45):15165-15174. Briefly, the right hind paw is sensitized to cold temperature (allodynic) by administering 0.1 mL of Complete Freund's Adjuvant (CFA) to that paw. Two to four days later, the time it takes for the animal to lift its CFA-injected paw from the cold surface is recorded compared to its un-injected normal left hind paw. […] To avoid tissue damage, the maximum cut-off time is five minutes. Animals that are allodynic (average PWL to the first three pain behaviors <150 seconds for the CFA-injected hind paw: ∼ ≥50% difference between the normal and CFA-injected paw) are included in the study and subsequently randomized across treatment groups. The following day, the animals in some groups are dosed with a test compound under blinded conditions. Following the one to two hour pre-treatment time, the post-dose PWL readings are taken again. The efficacy of the drug treatment is assessed by comparing the PWL in the drug treatment animals to those that receive the vehicle.

The target of the next series is human TRPA1 (Homo sapiens, UniProt O75762). Nature of the series: Inhibition of the TRPA1 ion channel, whole cell patch configuration (Example 1). The series is classed as cell-based. Conditions: current activation 10 µM AITC, read-out: Human TRPA1 IC50 Inward Current. Here is the method: Compounds of Formula (Ia) inhibit the TRPA1 channel, as measured using the method of Example 1. […] Data for TRPA1 inhibition and for TRPA1 selectivity was obtained by this method for the indicated compounds of Formula (Ia), with the relevant data included in Tables 1a - f below. All currents were recorded in whole-cell configuration using EPC-9 and EPC-10 amplifiers and Patchmaster software (HEKA). […] The standard pipette solution consisted of 140mM CsAsp, 10 mM EGTA, 10 mM HEPES, 2.27 mM MgCl2, 1.91 mM CaCl2, 4 mM MgATP, and 0.1-0.3 mM Na2GTP, with pH adjusted to 7.2 with CsOH. In addition, a solution containing 145 mM CsCl, 10 mM HEPES, 10 mM EGTA and 1 mM MgCl2 (pH 7.2 adjusted with CsOH) can be used. The standard bath solution contained 150 mM NaCl, 10 mM HEPES, 10 mM glucose, 4.5 mM KCl, 1 mM EGTA, 3 mM MgCl2, with pH adjusted to 7.4 with NaOH. In some instances, 2 mM CaCl2 was added in place of EGTA and the concentration of MgCl2 was reduced to 1 mM.
human TRPA1, sequence (O75762 whole entry): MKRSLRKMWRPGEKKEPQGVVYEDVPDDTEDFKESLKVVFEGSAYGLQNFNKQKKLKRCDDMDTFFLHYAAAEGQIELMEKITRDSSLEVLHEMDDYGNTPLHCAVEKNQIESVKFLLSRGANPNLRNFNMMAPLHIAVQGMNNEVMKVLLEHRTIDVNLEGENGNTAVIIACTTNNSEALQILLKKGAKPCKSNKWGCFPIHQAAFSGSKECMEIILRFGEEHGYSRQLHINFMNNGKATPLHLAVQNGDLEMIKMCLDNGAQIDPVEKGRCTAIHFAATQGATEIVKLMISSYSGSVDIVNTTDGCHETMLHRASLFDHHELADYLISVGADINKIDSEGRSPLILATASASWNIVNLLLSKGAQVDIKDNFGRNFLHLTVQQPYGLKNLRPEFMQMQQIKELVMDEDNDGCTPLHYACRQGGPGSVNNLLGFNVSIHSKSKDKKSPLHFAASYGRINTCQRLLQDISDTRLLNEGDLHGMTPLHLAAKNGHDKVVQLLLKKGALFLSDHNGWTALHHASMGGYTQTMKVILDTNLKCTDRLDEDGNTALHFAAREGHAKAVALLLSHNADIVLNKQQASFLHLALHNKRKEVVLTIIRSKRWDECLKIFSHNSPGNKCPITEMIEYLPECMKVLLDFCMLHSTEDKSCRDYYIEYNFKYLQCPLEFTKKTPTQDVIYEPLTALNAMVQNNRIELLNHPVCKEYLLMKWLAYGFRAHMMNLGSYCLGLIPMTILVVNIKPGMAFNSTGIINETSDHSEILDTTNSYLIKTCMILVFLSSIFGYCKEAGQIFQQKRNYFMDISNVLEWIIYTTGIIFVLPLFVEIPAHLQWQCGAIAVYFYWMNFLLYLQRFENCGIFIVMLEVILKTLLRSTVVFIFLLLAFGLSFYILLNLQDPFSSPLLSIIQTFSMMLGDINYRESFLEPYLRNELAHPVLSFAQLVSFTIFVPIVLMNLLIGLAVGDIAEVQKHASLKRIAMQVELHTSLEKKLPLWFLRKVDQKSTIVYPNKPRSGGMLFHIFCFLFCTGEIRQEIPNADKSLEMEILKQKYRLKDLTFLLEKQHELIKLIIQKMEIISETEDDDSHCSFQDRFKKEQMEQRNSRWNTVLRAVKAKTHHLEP
Data were collected either by continuous recordings at -60 mV or by applying voltage ramps from a holding potential of 0 mV every 4 s. Continuous recordings were collected at 400 Hz and digitally filtered off-line at 10 Hz for presentation. Voltage ramps were applied from - 100 mV to 100 mV over the course of 400 ms, and data were collected at 10 kHz and filtered at 2.9 kHz. Inward and outward currents were analyzed from the ramps at -80 and 80 mV, respectively. Liquid junction potential correction was not used.
Solutions were switched using a gravity-fed continuous focal perfusion system. To achieve rapid temperature changes, two temperature control, and perfusion systems were employed simultaneously. For temperatures ≥ 22°C, a Warner Instruments bipolar temperature controller (TC-344B) and inline heater (SHM-8) were used. […] Temperatures were confirmed using a thermistor (Warner Instruments, TA-29), with temperatures at the recorded cell estimated to be within +/- 2°C of those reported.
The antagonist effects of compounds of Formula (Ia) against human TRPA1 ("hTRPA1") and for some compounds rat TRPA1 ("rTRPA1") in a whole cell patch configuration were evaluated using the in vitro assay described above. The current activation tested was 10 µM AITC, and the tested concentrations ranged from 5 µM and 500 nM. Table 1a (Comparative Compounds)

For series [3], the system named is rats. Kind of series: Single-dose toxicity studies in rats (Example 7). The series is classed as in vivo. Here is the method:
(§1) In one single dose PK study conducted in fed and fasted rats, oral administration of Comparative Compound 2 in 30% HPCD produced adverse clinical signs in some of the fasted rats only.
(§2) Intravenous administration of Comparative Compound 2 (a nanosuspension formulation in 0.5% polysorbate 80 and 0.1% Poloxamer 188 and 0.8%NaCl) at dose levels of 3, 10, and 30 mg/kg as a single slow bolus (∼2 min) to male SD rat was well-tolerated.
(§3) Intravenous administration of Compound 1-B as a single, 30-minute infusion to SD female rats was well-tolerated at dose levels up to 300 mg/kg. No adverse clinical signs were observed concerning Compound 1-B.
(§4) Intravenous administration of Compound 5-T as a single, 30-minute infusion to SD female rats was well-tolerated at dose levels up to 300 mg/kg. No adverse clinical signs were observed concerning Compound 5-T.
(§5) A single oral dose administration of Compound 5-T in a Spray Dried Dispersion (SDD) formulation (a suspension of SDD powder) at nominal doses of 3, 30, 100, and 300 mg/kg to fed female Sprague Dawley rats were well-tolerated. No adverse clinical signs were observed concerning Compound 5-T.

A short description of series [4]: Single-dose toxicity studies in rats (Example 7). The series is classed as in vivo. Conditions: rat, in vivo; single IP administration 100 mg/Kg, rats; read-out: plasma Cmax. Here is the method: as §1, §2, §3, §4, §5
For series [5], the system named is rats. Kind of series: Rodent formalin pain model (Example 3). The series is classed as in vivo. Conditions: rat; for Minimal Efficacious Dose of Compound in Formalin Model: IV, statistically significant difference vs vehicle at 0 - 2 min (p≤0.05); for Duration of Pain Behavior: first two minutes after formalin, vehicle 88.6. Here is the method:
Compounds of Formula (Ia) are active in rodent models of pain induced by direct activation of the TRPA1 channel with intraplantar injection of the TRPA1 agonist formalin. Compounds of Formula (Ia) were tested in the formalin-induced pain test reported by Abbott et. al. Pain. 1995 Jan;60(1):91-102. Dubuisson et al. describe a method for assessing pain and analgesia in rats. Briefly, dilute formalin (50 µL of 3 % formalin) is injected into the plantar surface of the hind paw. […] The individual responsible for counting the pain behaviors in a particular study is blinded to the treatment groups.
Table 2 is a data table showing the results from testing compounds of Formula (Ia) in the rodent formalin-induced pain model described in […]. Rats were treated with the compounds of Formula (Ia) at various doses (0.1, 0.3, 1, 1.2, 3, 4, 10, or 30 mg/Kg IV) or with a control composition containing the vehicle (i.e., without a compound of Formula (Ia)). Pain behaviors (flinch, lift, lick, bite) were monitored following intraplantar formalin injection. Referring to Table 2, the minimum effective dose was derived from dose resulting in statistically significant difference in behavior at 0 - 2 min time period as compared with vehicle (p≤0.05).

The mark [6] stands for this setting: sodium bicarbonate buffer in water for injection/5% dextrose, pH 9.0, 50 mM sodium bicarbonate, read-out: pH 9.0 aqueous solubility.
The mark [7] stands for this setting: sodium phosphate buffer in water for injection/5% dextrose, pH 7.4, 75 mM sodium phosphate, read-out: pH 7.4 aqueous solubility.

Each structure is given as a SMILES string. Values after ≈ are worked out from the molar mass of the structure shown. Counter-ions that a name gives are not always drawn. Like-named read-outs stand apart in the source and are kept apart here.

The term IC50 denotes the point on the concentration scale where inhibition reaches its midpoint. Broadly, the Cmax is the highest concentration seen after dosing. Consider `C[C@H]1CCCN1c1ncc(-c2cccc(NC(=O)Cn3cnc4c3c(=O)n(C)c(=O)n4C)n2)cn1` [Comparator 2, reference compound], for which the “serum biomarkers of hepatotoxicity” value in series [1] (animal studies of Example 5) was “did not elevate the serum biomarkers of hepatotoxicity”. For the same compound, the solubility kinetic at 24 h came to 9 µg/mL (≈ 18.9 µM) in series [2] (buffered solution (sodium acetate buffer), pH 4.0, 50mM sodium acetate in 5% dextrose, read-out: pH 4.0 aqueous solubility); 10 µg/mL (≈ 21 µM) in series [2] (buffered solution (sodium bicarbonate buffer), pH 9.0, 50 mM sodium bicarbonate, read-out: pH 9.0 aqueous solubility); 7 µg/mL (≈ 14.7 µM) in series [2] (buffered solution (sodium phosphate buffer), pH 7.4, 75 mM sodium phosphate, read-out: pH 7.4 aqueous solubility). Besides, the “Paw Withdrawal Latency, CFA cold allodynia” value in the series on rat is recorded as “significantly less potency”. On human TRPA1, the IC50 fell in the range of 76 to 100 nM. The tolerability result in the series with rats [3] (IV single slow bolus, nanosuspension formulation, 3, 10, and 30 mg/kg, male SD rat) is “well-tolerated”. In the series with rats [3] (IV single slow bolus, nanosuspension formulation, all three dose levels (3, 10, 30 mg/kg), ~1hr postdose, male SD rat), the clinical observations result is reported as “Mild flushing/mild swelling of the ears”. The clinical signs result in the series on rats [3] (single IP administration 100 mg/Kg, rats, approximately 30 minutes to 4 hours) is on record as “mild to moderate lethargy”. Also, the adverse clinical signs result in the series with rats [3] (single oral dose in 30% HPCD, 50 mg/kg and 100 mg/kg, fasted female rats only (two of three and one of three)) is “labored breathing and red urine”. The peak concentration (Cmax) in series [4] was around 110 µg/mL.
In the case of `CC(C(=O)N(COP(=O)(O)O)c1cccc(-c2cnc(N3CCCC3C(F)(F)F)nc2)n1)n1cnc2c1c(=O)n(C)c(=O)n2C` (stereo not drawn) [Compound 1-A, phosphate, sodium salt], the “Minimal Efficacious Dose of Compound in Formalin Model” value (“Minimal Efficacious Dose of Compound” below) in the series with rats [5] stood at 1.2 mg/kg. Besides, the “Duration of Pain Behavior” value was 77.7 s in the series on rats [5] (dose 0.3 mg/kg IV), 43.3 s in the series on rats [5] (dose 1.2 mg/kg IV) and 19.8 s in the series on rats [5] (dose 4 mg/kg IV). Moreover, in series [1] (single IV bolus dose 100 mg/kg), the “Alterations in LFT” value is “↔”. The “LFT: % upper normal range ALT serum levels” value in series [1] (single IV bolus dose 100 mg/kg) was below 100%/<100%. In addition, the “LFT: % upper normal range AST serum levels” value in series [1] (single IV bolus dose 100 mg/kg) is given as below 100%/<100%. For the same compound, the solubility kinetic at 24 h in series [2] (setting [6]) and in series [2] (setting [7]) was above 1000 µg/mL each time. Further, the “Paw Withdrawal Latency, CFA cold allodynia” value in the series with rat was “reversal of CFA Cold Allodynia”. In addition, the half-inhibitory concentration (IC50) on human TRPA1 was above 100 nM.
In the case of `C[C@H]1CCCN1c1ncc(-c2cncc(N(COP(=O)(O)O)C(=O)[C@H](C)n3cnc4c3c(=O)n(C)c(=O)n4C)n2)cn1` [Compound 3-J, ((S)-2-(1,3-dimethyl-2,6-dioxo-1,2,3,6-tetrahydro-7H-purin-7-yl)-N-(6-(2-((S)-2-methylpyrrolidin-1-yl)pyrimidin-5-yl)pyrazin-2-yl)propanamido)methyl dihydrogen phosphate], the “Minimal Efficacious Dose of Compound” value in the series on rats [5] turned out to be 3 mg/kg. For the same compound, the “Duration of Pain Behavior” value was 39.7 s in the series with rats [5] (dose 3 mg/kg IV) and 1.6 s in the series with rats [5] (dose 10 mg/kg IV). The “Alterations in LFT” value in series [1] (single IV bolus dose 130 mg/kg) was “↔”. In addition, the “LFT: % upper normal range ALT serum levels” value in series [1] (single IV bolus dose 130 mg/kg) is on record as below 100%/<100%. Besides, the “LFT: % upper normal range AST serum levels” value in series [1] (single IV bolus dose 130 mg/kg) is on record as below 100%/<100%. Also, the solubility kinetic at 24 h in series [2] (setting [6]) and in series [2] (setting [7]) was above 1000 µg/mL in each case. Besides, the IC50 on human TRPA1 was above 100 nM.
In the case of `C[C@@H](C(=O)N(COP(=O)(O)O)c1cncc(-c2cnc(N3CCC[C@H]3C(F)(F)F)nc2)n1)n1cnc2c1c(=O)n(C)c(=O)n2C` [Compound 5-S, ((S)-2-(1,3-dimethyl-2,6-dioxo-1,2,3,6-tetrahydro-7H-purin-7-yl)-N-(6-(2-((S)-2-(trifluoromethyl)pyrrolidin-1-yl)pyrimidin-5-yl)pyrazin-2-yl)propanamido)methyl dihydrogen phosphate], in the series with rats [5], the “Minimal Efficacious Dose of Compound” value was 3 mg/kg. Moreover, the “Duration of Pain Behavior” value in the series on rats [5] (dose 0.3 mg/kg IV) turned out to be 69.8 s; with rats [5] (dose 1 mg/kg IV), 52.3 s; in the series with rats [5] (dose 3 mg/kg IV), 8.4 s; in the series on rats [5] (dose 10 mg/kg IV), 0 s. The “Alterations in LFT” value in series [1] (single IV bolus dose 100 mg/kg) is given as “↔”. Moreover, the “LFT: % upper normal range ALT serum levels” value in series [1] (single IV bolus dose 100 mg/kg) is below 100%/<100%. For the same compound, in series [1] (single IV bolus dose 100 mg/kg), the “LFT: % upper normal range AST serum levels” value was below 100%/<100%. The solubility kinetic at 24 h in series [2] (setting [6]) and in series [2] (setting [7]) was above 1000 µg/mL throughout. For the same compound, the IC50 at human TRPA1 was above 100 nM.
